From ChEMBL document CHEMBL5543140 (J Med Chem, 2024)
pEC50: −log10 of the molar value. Calls of active or inactive are those of the source. The calls are words filed in the database; no cut-off is given here.

What was measured:
Hippocampus [1] = experiment: Induction of neuroplasticity in C57BL/6J mouse assessed as increase in NPTN mRNA expression in brain hippocampus at 3 mg/kg, sc single dose by RT-PCR analysis; assay type: functional, organism-based
Mus musculus [2] = experiment: Psychedelic effect in sc dosed C57BL/6J mouse assessed as induction of 5-HT2A receptor dependent head-twitch responses by visual observation measured within 10 mins; assay type: functional, organism-based; conditions: dose 0.1-3 mg/kg
[3] = Renal clearance in Wistar rat plasma at 1 mg/kg, iv measured upto 48 hrs; assay type: ADME, organism-based
[4] = Absolute oral bioavailability in Wistar rat plasma at 5 mg/kg, […] measured upto 48 hrs; assay type: ADME, organism-based
Hippocampus [5] = experiment: Induction of neuroplasticity in C57BL/6J mouse assessed as increase in PSD-95 mRNA expression in brain hippocampus at 0.3 mg/kg, sc single dose by RT-PCR analysis; assay type: functional, organism-based
[6] = Half life in beagle dog at 0.4 mg/kg, iv measured upto 24 hrs; assay type: ADME, organism-based, Canis lupus familiaris; conditions: in vivo
[7] = Half life in male Sprague-Dawley rat plasma at 1 mg/kg, iv measured upto 8 hrs by LC-MS/MS analysis; assay type: ADME, organism-based
[8] = Volume of distribution in Wistar rat plasma at 1 mg/kg, iv measured upto 48 hrs; assay type: ADME, organism-based
[9] = Half life in Wistar rat brain at 5 mg/kg, po measured upto 48 hrs; assay type: ADME, organism-based
[10] = AUCinf in beagle dog at 0.4 mg/kg, iv measured upto 24 hrs; assay type: ADME, organism-based, Canis lupus familiaris; conditions: in vivo
Hippocampus [11] = experiment: Induction of neuroplasticity in C57BL/6J mouse assessed as increase in BDNF mRNA expression in brain hippocampus at 0.3 mg/kg, sc single dose by RT-PCR analysis; assay type: functional, organism-based
[12] = Unbound concentration in male Sprague-Dawley rat brain homogenate at 1 mg/kg, iv measured upto 8 hrs by LC-MS/MS analysis; assay type: ADME, organism-based
[13] = Tmax in male Sprague-Dawley rat CSF at 1 mg/kg, iv measured upto 8 hrs by LC-MS/MS analysis; assay type: ADME, organism-based, Cerebrospinal fluid
[14] = Metabolic stability in mouse liver S9 fractions assessed as half life; assay type: ADME, subcellular; conditions: liver S9 fraction
[15] = Cmax in male Sprague-Dawley rat brain at 1 mg/kg, iv measured upto 8 hrs by LC-MS/MS analysis; assay type: ADME, organism-based
[16] = Ex vivo binding in C57BL/6J mouse brain frontal cortex assessed as specific binding [3H]Cimbi-36 at 1 mg/kg, sc measured after 40 mins by liquid scintillation counting analysis (reference value: 1092 +/- 53); assay type: functional
[17] = Cmax in male Sprague-Dawley rat CSF at 1 mg/kg, iv measured upto 8 hrs by LC-MS/MS analysis; assay type: ADME, organism-based, Cerebrospinal fluid
Hippocampus [18] = experiment: Induction of neuroplasticity in C57BL/6J mouse assessed as increase in IGF1 mRNA expression in brain hippocampus at 0.3 mg/kg, sc single dose by RT-PCR analysis; assay type: functional, organism-based
[19] = target: T1, 5-hydroxytryptamine receptor 2C (Homo sapiens, UniProt P28335); experiment: Agonist activity at human 5-HT2C receptor expressed in HEK293 cells assessed as IP2 production measured after 30 mins incubation by HTRF assay; assay type: functional, cell-based
T1 sequence (P28335 whole entry): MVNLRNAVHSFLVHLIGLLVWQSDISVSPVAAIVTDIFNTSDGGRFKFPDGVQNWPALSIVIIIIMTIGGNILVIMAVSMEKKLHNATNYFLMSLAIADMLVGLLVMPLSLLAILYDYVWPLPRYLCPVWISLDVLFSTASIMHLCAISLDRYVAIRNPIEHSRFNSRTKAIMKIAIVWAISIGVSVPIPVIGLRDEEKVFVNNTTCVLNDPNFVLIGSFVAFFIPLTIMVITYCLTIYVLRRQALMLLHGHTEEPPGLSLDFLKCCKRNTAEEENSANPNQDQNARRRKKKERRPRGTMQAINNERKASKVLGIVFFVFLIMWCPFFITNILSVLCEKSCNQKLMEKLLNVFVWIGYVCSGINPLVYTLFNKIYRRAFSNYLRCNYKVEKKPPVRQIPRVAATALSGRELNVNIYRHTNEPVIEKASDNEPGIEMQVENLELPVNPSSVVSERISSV

[20] = Metabolic stability in rat liver microsomes assessed as half life at 1 uM incubated for 120 mins in presence of NADPH; assay type: ADME, Microsome
[21] = target: T2, 5-hydroxytryptamine receptor 1A (Homo sapiens) (UniProt P08908); experiment: Agonist activity at human 5-HT1A receptor expressed in HEK293T cells co-transfected with 22F-Glosensor assessed as inhibition of cAMP production measured after 30 mins incubation by Microbeta2Micro-plate counter analysis; assay type: functional, cell-based; conditions: filed as agonist
T2 sequence (whole entry): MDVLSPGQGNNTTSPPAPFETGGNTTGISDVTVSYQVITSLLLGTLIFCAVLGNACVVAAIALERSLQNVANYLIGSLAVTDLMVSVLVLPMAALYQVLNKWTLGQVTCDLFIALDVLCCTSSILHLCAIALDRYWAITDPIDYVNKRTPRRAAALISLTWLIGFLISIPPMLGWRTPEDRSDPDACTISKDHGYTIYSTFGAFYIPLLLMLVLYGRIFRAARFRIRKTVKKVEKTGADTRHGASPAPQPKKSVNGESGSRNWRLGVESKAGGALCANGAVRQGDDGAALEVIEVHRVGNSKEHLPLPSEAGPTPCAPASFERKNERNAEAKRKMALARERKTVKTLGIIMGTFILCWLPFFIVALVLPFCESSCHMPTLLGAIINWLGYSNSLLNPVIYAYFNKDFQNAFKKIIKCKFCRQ

Mus musculus [22] = experiment: Induction of neuroplasticity in C57BL/6J mouse assessed as increase in EGR2 mRNA expression in brain frontal cortex at 3 mg/kg, sc single dose by RT-PCR analysis; assay type: functional, organism-based
[23] = Half life in male Sprague-Dawley rat brain at 1 mg/kg, iv measured upto 8 hrs by LC-MS/MS analysis; assay type: ADME, organism-based
Homo sapiens = organism: Homo sapiens; experiment: Selectivity ratio, ratio of Ki for human 5-HT2B receptor to human 5-HT2A receptor
Mus musculus [24] = experiment: Psychedelic effect in C57BL/6J mouse assessed as maximal number of 5-HT2A receptor dependent head-twitch responses by visual observation at 1 mg/kg, sc (reference value: 3); assay type: functional
[25] = target: 5-hydroxytryptamine receptor 2C (Homo sapiens) (UniProt P28335); experiment: Agonist activity at human 5-HT2C receptor expressed in HEK293 cells assessed as maximal IP2 production measured after 30 mins incubation by HTRF assay relative to control; assay type: functional, cell-based; conditions: filed as agonist
Mus musculus [26] = experiment: Locomotor activity in C57BL/6J mouse assessed as distance traveled at 3 mg/kg, po measured for 15 to 25 mins (reference value: 1710 +/- 120 cm) by Ethovision tracking system; assay type: functional; conditions: time 15-25 min
[27] = Cmax in male Sprague-Dawley rat plasma at 1 mg/kg, iv measured upto 8 hrs by LC-MS/MS analysis; assay type: ADME, organism-based
Hippocampus [28] = experiment: Induction of neuroplasticity in C57BL/6J mouse assessed as increase in BDNF mRNA expression in brain hippocampus at 3 mg/kg, sc single dose by RT-PCR analysis; assay type: functional, organism-based

SMILES: COc1cc([Se]C(F)(F)F)c(OC)cc1CCN.Cl
- Activity (Hippocampus [1]): inactive
- Activity (Mus musculus [2]): Dose-Dependent Effect
- CL renal at 48 h [3]: 1.13 mL/min/kg
- bioavailability [4]: 19.1%
- Activity (Hippocampus [5]): inactive
- half-life [6]: 4.31 h
- half-life [7]: 1.53 h
- Vd [8]: 22.2 L/kg
- half-life [9]: 4.71 h
- AUC(0-inf) [10]: 446 ng·h/mL
- Activity (Hippocampus [11]): inactive
- fraction unbound at 8 h [12]: 0.014
- Tmax [13]: 4.98 min
- half-life [14]: > 2 h
- Cmax [15]: 1490 ng/mL
- Activity [16]: 732
- Cmax [17]: 48.7 ng/mL
- Activity (Hippocampus [18]): inactive
- pEC50 [19]: 7.04
- half-life at 1 µM [20]: 0.917 h
- Emax [21]: 95%
- Activity (Mus musculus [22]): Active
- half-life [23]: 1.34 h
- Ratio Ki (Homo sapiens): 19
- Activity (Mus musculus [24]): 17
- Emax [25]: 91%
- Activity (Mus musculus [26]): 3008 cm
- Cmax [27]: 250 ng/mL
- Activity (Hippocampus [28]): inactive
